These results are taken from patent publication US10434076B2, “Use of 2,5-dihydroxybenzene derivatives for treating dermatitis” (AmDerma Pharmaceuticals, LLC, priority 2006, dated 2019).

Each structure is given as a SMILES string. “Also recorded” adds a separate entry of the source.

Assay [1] has as its system myeloperoxidase (MPO) activity. Description: Myeloperoxidase (MPO) activity in the ear after benzalkonium chloride induced dermatitis. The assay is classed as in vivo, rat. Particulars: for increase in MPO activity in the ear caused by dermatitis: 24 hours after induction. As for the experimental part:
In this same model (Hyun E et al. Br J Pharmacol, 2004), dermatitis induction has been associated to an increase in the myeloperoxidase (MPO) activity in the ear, as a marker of leukocyte infiltration in the tissue affected with dermatitis. Based on these evidences, the effect of hydroxybenzene derivatives (i the activity of the MPO in the model described in this example was established. The MPO activity was determined in the ears of control rats (without dermatitis) and in ears on which dermatitis had been induced with benzalkonium chloride and had been treated with vehicle (anhydrous glycerol), 5% DHBS cream or DABS 2.5% solution in glycerol. The ears were frozen in liquid nitrogen 24 hours after the induction of dermatitis and were kept at −80° C. until determination of MPO activity. To determine the MPO activity, the frozen ears were homogenized in phosphate buffer with 0.5% of hexadecyltrimethylammonium bromide. After several freezing/thawing/sonication cycles, the samples were centrifuged at 13,000×g during 20 minutes at 4° C. H2O2 and O-dianisidine were added into the supernatants and the absorbance was measured at 460 nm in a spectrophotometer 1 hour after incubation at room temperature. The MPO activity is expressed as absorbance units per mg of tissue.

The target in assay [2] is Fibroblast Growth Factor-1 (FGF-1) (Homo sapiens, UniProt P05230). Description: Structural interaction with FGF-1 (diffraction of complex crystals). The assay is classed as binding. The following applies: electron density. As for the experimental part: As of the diffraction from complex crystals of FGF-1: 2-acetoxy-5-hydroxybenzenesulfonic acid, FGF-1; 5-acetoxy-2-hydroxybenzenesulfonic acid and FGF-1: 2,5-diacetoxybenzenesulfonic acid, the complex structures were calculated and represented. In FIGS. 10, 11 and 12, representing the surface of the protein coloured according to its electrostatic potential (light grey: negative charge, dark grey: positive charge, white: areas with no charge), the interaction form of the 2-acetoxy-5-hydroxybenzenesulfonic acid, 5-acetoxy-2-hydroxybenzenesulfonic acid and 2,5-diacetoxybenzenesulfonic acid, respectively, with the FGF-1 may be observed.
Sequence of Fibroblast Growth Factor-1 (FGF-1) (P05230 whole entry, species assumed): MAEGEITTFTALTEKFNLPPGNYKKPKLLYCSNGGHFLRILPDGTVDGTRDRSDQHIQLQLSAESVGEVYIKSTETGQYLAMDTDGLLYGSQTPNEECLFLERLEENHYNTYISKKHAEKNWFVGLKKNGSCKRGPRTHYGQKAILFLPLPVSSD

The test system of assay [3] is dermatitis induced by benzalkonium chloride on the ear of the rat. The assay can be described thus: Benzalkonium chloride induced dermatitis on rat ears, erythema and histological study. The assay is classed as in vivo. As for the experimental part: Using the same model, dermatitis was induced on both ears of two rats, following the same process described above. In this case, 30 minutes after the application of benzalkonium chloride, a rat was treated in both ears with a glycerol solution (FIG. 3A), while the other one was treated in both ears with a glycerol solution containing 2.5% (w/v) of 2,5-diacetoxybenzenesulfonate (DABS) (FIG. 3B).

Assay [4] deals with dermatitis induced by the application of benzalkonium chloride on the rat ears. Description: Benzalkonium chloride induced dermatitis on rat ears, Evans blue dye extravasation. The format is in vivo. Particulars: for percentage of the area stained in blue compared to the total area of the ear (dermatitis extent): treated vs untreated ear. As for the experimental part:
Dermatitis was induced by the application of benzalkonium chloride, 5% solution (w/v) (1:5 olive oil:acetone) on the entire extent of the back part of the car ([…]) in anesthetized rats. Dermatitis was induced in both ears. In the assay of 2,5-dihydroxybenzenesulfonate (DHBS), a cream containing 5% of DHBS (w/w) was applied topically only on the back part of the right ear, 30 minutes after the application of benzalkonium chloride. Fifteen minutes later, 0.5% by weight of Evans blue dye solution (400 μL per animal) was injected into the jugular vein. […] Therefore, it can be stated that topical application of 5% DHBS reduced the dermatitis extent.
This observation was confirmed upon quantification of dermatitis extent based on the area of the ear stained in blue with respect to the total area of the ear. Identically obtained photographs of the extended ears were processed in order to determine the stained area and the total area of the ear using a computer program to analyze images (Motic Image). The stained area of each ear was related to the total area to obtain the percentage of the ear affected by the dermatitis. […] 24 hours after dermatitis induction (FIG. 2B), these values were very similar.
Using the same procedure as in the former example, dermatitis was induced by the application of benzalkonium chloride, 5% solution (w/v) (1:5 olive oil:acetone) on the entire extent of the back part of the ear (40 μL/ear) in anesthetized rats. Dermatitis was induced in both ears. A cream containing 5% (w/v) of either 2-acetoxy-5-hydroxybenzenesulfonate (2A-5HBS) or 5-acetoxy-2-hydroxybenzenesulfonate (5A-2HBS) was applied topically only on the back part of the right ear, 30 minutes after the application of benzalkonium chloride. Fifteen minutes later, 0.5% (w/v) of Evans blue dye solution (400 μL per animal) was injected into the jugular vein. […] Therefore, it can be stated that topical application of 5% 2A-5HBS and 5% 5A-2HBS reduced the dermatitis extent.
This observation was confirmed upon quantification of dermatitis extent based on the area of the ear stained in blue with respect to the total area of the ear. Identically obtained photographs of the extended ears were processed in order to determine the stained area and the total area of the ear using a computer program to analyze images (Motic Image). The stained area of each car was related to the total area to obtain the percentage of the ear affected by the dermatitis.

Where [5] appears, read: topical 2.5% DABS in glycerol vs vehicle, tissues fixed 24 hours after induction.
Where [6] appears, read: topical 5% (w/v) monoester on right ear vs untreated left ear, 24 hours after induction.
[7] abbreviates: topical 5% monoester solution, 24 hours after induction.

With `CC(=O)Oc1ccc(OC(C)=O)c(S(=O)(=O)O)c1` [DABS, 2,5-diacetoxybenzenesulfonic acid], in assay [1] (2.5% DABS (half the amount of active principle) compared with 5% DHBS), the “efficacy on MPO activity relative to 5% DHBS” value was “slightly higher”. In assay [1] (topical 2.5% DABS solution in glycerol vs vehicle), the “increase in MPO activity in the ear caused by dermatitis” value was “significantly reduces”. In addition, in assay [2], the “acetoxyl groups kept when bound to FGF-1” value was “keep the acetoxyl groups in positions 2, 5 and, 2 and 5, respectively”; the “location of the compound bound to FGF-1” value is reported as “located at a site very close to the site that, as described, is occupied by the 2,5-dihydroxybenzenesulfonic acid”. For the same compound, the “erythema caused by the dermatitis” value in assay [3] (topical 2.5% (w/v) DABS in glycerol vs glycerol vehicle) is reported as “reduced benzalkonium chloride induced dermatitis; also recorded: milder”. Further, in assay [3] (setting [5]), the “granulocytes adhered to the capillary endothelial cells (histological study)” value is on record as “significant reduction; also recorded: not observed”; the “leukocyte infiltration (histological study)” value is “reduces the edema and the leukocyte infiltration; also recorded: noticeably milder”; the “tissular edema (histological study)” value is on record as “reduces the edema; also recorded: not observed”.

For the compound `CC(=O)Oc1ccc(O)cc1S(=O)(=O)O` [2A-5HBS, 2-acetoxy-5-hydroxybenzenesulfonic acid], in assay [2], the “acetoxyl groups kept when bound to FGF-1” value is “keep the acetoxyl groups in positions 2, 5 and, 2 and 5, respectively”; the “location of the compound bound to FGF-1” value is listed as “located at a site very close to the site that, as described, is occupied by the 2,5-dihydroxybenzenesulfonic acid”. In addition, in assay [4] (setting [6]), the “blue stain extent (Evans blue dye extravasation), photographs” value (“blue stain extent” below) is “clearly smaller blue stain; also recorded: remarkably reduced dye extravasation”. The “percentage of the area stained in blue compared to the total area of the ear (dermatitis extent)” value (“percentage of the area stained in blue” for short) in assay [4] (setting [7]) is on record as “significantly reduced the percentage of the area stained in blue; also recorded: significantly reduced dermatitis extent”.

For `CC(=O)Oc1ccc(O)c(S(=O)(=O)O)c1` [5A-2HBS, 5-acetoxy-2-hydroxybenzenesulfonic acid], in assay [2], the “acetoxyl groups kept when bound to FGF-1” value was “keep the acetoxyl groups in positions 2, 5 and, 2 and 5, respectively”; the “location of the compound bound to FGF-1” value is reported as “located at a site very close to the site that, as described, is occupied by the 2,5-dihydroxybenzenesulfonic acid”. Also, the “blue stain extent” value in assay [4] (setting [6]) is recorded as “notably reduced; also recorded: remarkably reduced dye extravasation”. Besides, in assay [4] (setting [7]), the “percentage of the area stained in blue” value is on record as “significantly reduced the percentage of the area stained in blue”.

Turning to `O=S(=O)(O)c1cc(O)ccc1O` [DHBS, 2,5-dihydroxybenzenesulfonic acid, reference compound], the “increase in MPO activity in the ear caused by dermatitis” value in assay [1] (topical 5% DHBS cream vs vehicle) is recorded as “significantly reduced”. The “blue stain extent” value in assay [4] (topical cream 5% DHBS on right ear vs untreated left ear, 4 hours after dermatitis induction) is listed as “clearly smaller blue stain; also recorded: remarkably reduced dye extravasation”. Besides, in assay [4] (topical cream 5% DHBS, 4 hours after induction), the “percentage of the area stained in blue” value is listed as “significantly reduced the percentage of the area stained in blue; also recorded: significantly reduced dermatitis extent”.
